Laboratory results published in patent US20240216401A1, “COMBINATION THERAPY BY USING AKR1C3-ACTIVATED COMPOUND WITH IMMUNE CHECKPOINT INHIBITOR” (OBI Pharma, Inc., priority 2021, published 2024).
Several values for one entry are separate records, joined by “and”; a condition that tells them apart may be missing. Equal values may be shown once.

What was measured:
HepG2 tumor = assay: Example 2: tumor volume, tumor weight and TGI in HepG2 tumor bearing humanized mice; format: in vivo, Mus musculus; settings: for mean tumor volume: mean±SEM; for tumor growth inhibition (TGI): Day 30 vs Day 0, alone or with anti-hPD-1 20 mg/kg
Description: (§1) 1. Species: Mus musculus • Strain: Advanced immunodeficiency mouse. • (NOD.CgPrkdc^scid Il2rg) • Source: Trineo Biotechnology Co., LTD.
(§2) Each group contains six mice. The human hepatocellular carcinoma cell line HepG2 were subcutaneously inoculated to the advanced immune-deficiency mice. Total of 42 mice were included in this study.
2.2. […] The subcutaneous injection volume was […].
(§3) 3.1. […] The injection was performed using insulin syringe with the dosage of 0.3 mg/kg or 1 mg/kg and the injection volume was 5 mL/kg. […] The reference item was administered for G1. The procedure followed the standards of sample administration. The starting day of test item administration was denoted as the first experimental day (DO).
(§4) 3.2. […] The injection was performed using insulin syringe with the dosage of 20 mg/kg and injection volume of 10 mL/kg. […] The procedure followed the standards of sample administration.
The measurement was performed from the next day of the inoculation. The tumor volumes were measured and recorded twice a week (Mon., Thur.). Tumor volume was calculated by ellipsoid equation according to the records ((major axis×minor axis×minor axis)×(π/6)).
Tumor volumes were used to calculate tumor growth inhibition (TGI) rates according to the following formula: TGI (%)=[1−(Ti−T0)/(Ci−C0)]×100, where Ti and Ci indicate the mean tumor volume in the treatment groups and vehicle group at the end of the experiment (Day 30). Whereas, T0 and C0 indicate the mean tumor volumes in the treatment group and vehicle group at the beginning of the experiment (Day 0).
Mice were sacrificed by CO2 euthanasia at the end of the study duration, and the connective tissue around tumor was resected. The tumor samples were then weighed and cut equally into three sections if the tumor weight over 400 mg. The tumor tissue was prepared for the isolation of tumor-infiltrating lymphocytes (TILs). The rest of one section was fixed in 10% formaldehyde and embedded in paraffin; the other was stored at a temperature below −70° C.

[1] = Example 2: body weight of HepG2 tumor bearing humanized mice; format: in vivo, Mus musculus; settings: for Body Weight: G2: OBI-3424 0.3 mg/kg, individual animal, 0.3 mg/kg
Description: as §1, §2, §3, §4
The measurement was performed from the next day of the inoculation. The animal body weights were measured and recorded twice per week.

[2] = G2 OBI-3424 (0.3 mg/kg), D30, group Mean
[3] = G2 OBI-3424 (0.3 mg/kg), D30, individual animals, 0.3 mg/kg
[4] = G3 OBI-3424 (1 mg/kg), D30, individual animals, 1 mg/kg

SMILES: C[C@H](OP(=O)(N1CC1)N1CC1)c1ccc([N+](=O)[O-])c(Oc2cccc(C(=O)N(C)C)c2)c1 [OBI-3424, (S)-1-(3-(3-N,N-dimethylaminocarbonyl)phenoxyl-4-mtrophenyl)-1-ethyl-N,N′-bis(ethylene)phosphoramidate]
- dose relation of reduction in mean tumor volume (in words) (HepG2 tumor; Example 2, D30, OBI-3424 0.3 mg/kg and 1 mg/kg): dose-related reduction
- mean tumor volume (HepG2 tumor; Example 2, D30, OBI-3424 0.3 mg/kg IV, alone (G2) or with anti-hPD-1 20 mg/kg IP (G5)): 716.44±31.12 mm^3
- mean tumor volume (HepG2 tumor; Example 2, D30, OBI-3424 1 mg/kg IV, alone (G3) or with anti-hPD-1 20 mg/kg IP (G6)): 216.90±22.20 mm^3
- mean tumor volume compared with vehicle (in words) (HepG2 tumor; Example 2, D30, vs vehicle (G1), OBI-3424 high-dose 1 mg/kg (G3), anti-hPD-1 20 mg/kg (G4), combinations G5-G7): significantly suppressed
- tumor weight compared with vehicle (in words) (HepG2 tumor; Example 2, Day 30, OBI-3424 low-dose (G2), high-dose (G3), combinations G5-G7 vs vehicle (G1)): significantly suppressed
- tumor growth inhibition (TGI) (HepG2 tumor; Example 2, high-dose OBI-3424 (1 mg/kg)): 113.27%
- tumor growth inhibition (TGI) (HepG2 tumor; Example 2, low-dose OBI-3424 (0.3 mg/kg)): 27.82%
- anti-tumor effect (conclusion in words) (HepG2 tumor; Example 2, HepG2 humanized mouse model, combination: high-dose OBI-3424): dose-dependent trend with anti-tumor activity
- TGI (HepG2 tumor; G2 OBI-3424 (0.3 mg/kg)): 27.82%
- Tumor volume (HepG2 tumor; G2 OBI-3424 (0.3 mg/kg), D0, group Mean): 293.3 mm^3
- Tumor volume (HepG2 tumor; G2 OBI-3424 (0.3 mg/kg), D0, individual animals, 0.3 mg/kg): 280.0 mm^3 and 279.4 mm^3 and 226.0 mm^3 and 353.6 mm^3 and 317.7 mm^3 and 303.0 mm^3
- Tumor volume (HepG2 tumor; G2 OBI-3424 (0.3 mg/kg), D2, group Mean): 300.8 mm^3
- Tumor volume (HepG2 tumor; G2 OBI-3424 (0.3 mg/kg), D2, individual animals, 0.3 mg/kg): 283.9 mm^3 and 281.1 mm^3 and 230.6 mm^3 and 354.0 mm^3 and 321.0 mm^3 and 334.4 mm^3
- Tumor volume (HepG2 tumor; G2 OBI-3424 (0.3 mg/kg), D6, group Mean): 307.8 mm^3
- Tumor volume (HepG2 tumor; G2 OBI-3424 (0.3 mg/kg), D6, individual animals, 0.3 mg/kg): 289.0 mm^3 and 293.9 mm^3 and 241.0 mm^3 and 356.0 mm^3 and 330.5 mm^3 and 336.3 mm^3
- Tumor volume (HepG2 tumor; G2 OBI-3424 (0.3 mg/kg), D9, group Mean): 388.7 mm^3
- Tumor volume (HepG2 tumor; G2 OBI-3424 (0.3 mg/kg), D9, individual animals, 0.3 mg/kg): 375.6 mm^3 and 367.0 mm^3 and 395.2 mm^3 and 367.9 mm^3 and 388.9 mm^3 and 437.7 mm^3
- Tumor volume (HepG2 tumor; G2 OBI-3424 (0.3 mg/kg), D13, group Mean): 509.0 mm^3
- Tumor volume (HepG2 tumor; G2 OBI-3424 (0.3 mg/kg), D13, individual animals, 0.3 mg/kg): 569.5 mm^3 and 452.6 mm^3 and 528.9 mm^3 and 388.3 mm^3 and 590.7 mm^3 and 524.2 mm^3
- Tumor volume (HepG2 tumor; G2 OBI-3424 (0.3 mg/kg), D16, group Mean): 617.1 mm^3
- Tumor volume (HepG2 tumor; G2 OBI-3424 (0.3 mg/kg), D16, individual animals, 0.3 mg/kg): 714.1 mm^3 and 528.0 mm^3 and 714.4 mm^3 and 405.8 mm^3 and 749.1 mm^3 and 591.5 mm^3
- Tumor volume (HepG2 tumor; G2 OBI-3424 (0.3 mg/kg), D20, group Mean): 702.3 mm^3
- Tumor volume (HepG2 tumor; G2 OBI-3424 (0.3 mg/kg), D20, individual animals, 0.3 mg/kg): 808.4 mm^3 and 658.4 mm^3 and 854.0 mm^3 and 419.5 mm^3 and 751.9 mm^3 and 721.3 mm^3
- Tumor volume (HepG2 tumor; G2 OBI-3424 (0.3 mg/kg), D23, group Mean): 744.1 mm^3
- Tumor volume (HepG2 tumor; G2 OBI-3424 (0.3 mg/kg), D23, individual animals, 0.3 mg/kg): 889.2 mm^3 and 661.3 mm^3 and 890.1 mm^3 and 297.5 mm^3 and 842.6 mm^3 and 884.2 mm^3
- Tumor volume (HepG2 tumor; G2 OBI-3424 (0.3 mg/kg), D27, group Mean): 717.3 mm^3
- Tumor volume (HepG2 tumor; G2 OBI-3424 (0.3 mg/kg), D27, individual animals, 0.3 mg/kg): 926.9 mm^3 and 527.6 mm^3 and 909.1 mm^3 and 205.1 mm^3 and 848.5 mm^3 and 886.5 mm^3
- Tumor volume (HepG2 tumor; [2]): 716.4 mm^3
- Tumor weight (HepG2 tumor; [2]): 304.45 mg
- Tumor volume (HepG2 tumor; [3]): 1012. mm^3 and 468.2 mm^3 and 882.8 mm^3 and 181.5 mm^3 and 850.4 mm^3 and 903.5 mm^3
- Tumor weight (HepG2 tumor; [3]): 445.50 mg and 223.90 mg and 327.90 mg and 63.40 mg and 449.00 mg and 317.00 mg
- TGI (HepG2 tumor; G3 OBI-3424 (1 mg/kg)): 113.27%
- Tumor volume (HepG2 tumor; G3 OBI-3424 (1 mg/kg), D0, individual animals, 1 mg/kg): 290.8 mm^3 and 318.0 mm^3 and 286.8 mm^3
- Tumor volume (HepG2 tumor; G3 OBI-3424 (1 mg/kg), D2, individual animals, 1 mg/kg): 295.5 mm^3 and 322.4 mm^3 and 292.9 mm^3
- Tumor volume (HepG2 tumor; G3 OBI-3424 (1 mg/kg), D6, individual animals, 1 mg/kg): 297.0 mm^3 and 328.4 mm^3 and 304.4 mm^3
- Tumor volume (HepG2 tumor; G3 OBI-3424 (1 mg/kg), D9, individual animals, 1 mg/kg): 337.5 mm^3 and 468.5 mm^3 and 334.0 mm^3
- Tumor volume (HepG2 tumor; G3 OBI-3424 (1 mg/kg), D13, individual animals, 1 mg/kg): 341.3 mm^3 and 492.3 mm^3 and 362.5 mm^3
- Tumor volume (HepG2 tumor; G3 OBI-3424 (1 mg/kg), D16, individual animals, 1 mg/kg): 359.9 mm^3 and 556.8 mm^3 and 465.2 mm^3
- Tumor volume (HepG2 tumor; G3 OBI-3424 (1 mg/kg), D20, individual animals, 1 mg/kg): 345.0 mm^3 and 552.1 mm^3 and 465.2 mm^3
- Tumor volume (HepG2 tumor; G3 OBI-3424 (1 mg/kg), D23, individual animals, 1 mg/kg): 260.7 mm^3 and 544.3 mm^3 and 419.2 mm^3
- Tumor volume (HepG2 tumor; G3 OBI-3424 (1 mg/kg), D27, individual animals, 1 mg/kg): 246.4 mm^3 and 426.0 mm^3 and 295.9 mm^3
- Tumor weight (HepG2 tumor; G3 OBI-3424 (1 mg/kg), D30, group Mean): 84.40 mg
- Tumor volume (HepG2 tumor; [4]): 185.2 mm^3 and 295.5 mm^3 and 215.0 mm^3
- Tumor weight (HepG2 tumor; [4]): 62.40 mg and 101.90 mg and 105.20 mg and 90.30 mg and 69.80 mg and 76.80 mg
- body weight (in words) ([1]; Example 2, until Day 30): Body weight loss was not seen
- Body Weight ([1]; D2 after test item administration): 22.12 g
- Body Weight ([1]; D6 after test item administration): 24.82 g
